Several values for one entry are separate records, joined by “and”; a condition that tells them apart may be missing. Equal entries are not always repeated. Entries after “also recorded” stand apart in the source; their conditions may differ. Where two headings read alike, the source gives them in different places.
Columns and labels:
P2X receptors [1] = assay: Ca2+-imaging of LUHMES neurons, P2X receptor antagonists against ATP or α,β-meATP response; format: cell-based, human; settings: for pIC50 on the response triggered by ATP: 1 µM ATP (~EC75)
Method: (§1) The signals of individual cells could not be captured. […] The total recording never exceeded 8 min.
(§2) (Ritz et al. [2015]). […].

LUHMES neurons [2] = format: cell-based, human
Method: as §1

[3] = biological target: dopamine transporter (DAT) (Homo sapiens, UniProt Q01959); format: cell-based
Method: LUHMES cells were differentiated for 6 days in a 24-well format and then treated with the indicated DAT inhibitors. […] After 10 min at 37 °C, the supernatant was removed and cells were washed with PBS. Then lysis buffer was added (PBS containing 0.2% Triton X-100). The amount of radioactive label taken up by the cells as well as the residual activity in the cell supernatant (plus washing buffer) was measured on a scintillation counter.

P2X receptors [4] = assay: Ca2+-imaging of LUHMES neurons, P2 receptor agonist responses; format: cell-based, human; settings: for pEC50 in Ca2+-imaging: LUHMES neurons, agonist concentration-response
Method: as §1
(Ritz et al. [2015]). The logarithm of the half-maximal effective concentration (logEC50) between 0 and the upper limit (d), which was set to 1, is represented by ẽ, x denotes the concentration and b stands for the slope parameter (Ritz et al. [2015]).

LUHMES neurons [5] = assay: Manual patch clamp recordings of LUHMES neurons; format: cell-based, human
Excerpt: Manual patch clamp was executed with an EPC 10 USB patch clamp amplifier and PatchMaster Software (version 2 × 90.5; HEKA Elektronik, Lambrecht, Germany). […] Intracellular solution contained [mM]: 107 K-gluconate, 10 KCl, 1 MgCl2, 10 HEPES, 5 EGTA, 4 Na2ATP and 0.2 NaGTP, pH 7.20. Recordings were obtained at room temperature. The cells were kept at a holding potential of − 70 mV. In voltage clamp mode NaV and voltage-gated potassium (KV) channels were activated for 300 ms by voltage pulses ranging from − 70 to + 70 mV in + 10 mV steps after a hyperpolarizing step to − 120 mV for 200 ms. To investigate the firing behavior, cells were stimulated in current clamp mode by hyper- and depolarizing current pulses of 300 ms duration. The pulse protocol was executed at 0.2 Hz. For agonist tests in current clamp and voltage clamp mode, cells were kept at a holding potential of − 70 mV and the compounds were applied for 5 s.
The raw data of the manual patch clamp recordings were analyzed in scripts written in R. For leak subtraction, the P/4 algorithms of PatchMaster and QPatch Software were used in the voltage clamp recordings for manual and automated patch clamp experiments, respectively.

NaV1.2 = settings: ref McCormack et al. [2013]; cited from earlier work
NaV1.7 = settings: ref McCormack et al. [2013]; cited from earlier work
NaV1.6 = settings: ref McCormack et al. [2013]; cited from earlier work
NaV1.3 = settings: ref McCormack et al. [2013]; cited from earlier work
NaV1.1 = settings: ref McCormack et al. [2013]; cited from earlier work
NaV channels [6] = assay: Automated patch clamp recordings (QPatch) of NaV channel currents in LUHMES neurons; format: cell-based, human
rat hippocampal neurons = settings: cited from earlier work
NaV channels [7] = assay: Ca2+-imaging of LUHMES neurons, NaV channel toxicants; format: cell-based, human
Method: as §1, §2

mice = settings: mouse, in vivo; cited from earlier work
human P2X3 receptors = settings: ref Garcia-Guzman et al. [1997]; cited from earlier work
[8] = 1 µM DA and 0.3 µM AMP, NNC 55–0396 30 µM

dopamine transporter (DAT), sequence (Q01959 whole entry): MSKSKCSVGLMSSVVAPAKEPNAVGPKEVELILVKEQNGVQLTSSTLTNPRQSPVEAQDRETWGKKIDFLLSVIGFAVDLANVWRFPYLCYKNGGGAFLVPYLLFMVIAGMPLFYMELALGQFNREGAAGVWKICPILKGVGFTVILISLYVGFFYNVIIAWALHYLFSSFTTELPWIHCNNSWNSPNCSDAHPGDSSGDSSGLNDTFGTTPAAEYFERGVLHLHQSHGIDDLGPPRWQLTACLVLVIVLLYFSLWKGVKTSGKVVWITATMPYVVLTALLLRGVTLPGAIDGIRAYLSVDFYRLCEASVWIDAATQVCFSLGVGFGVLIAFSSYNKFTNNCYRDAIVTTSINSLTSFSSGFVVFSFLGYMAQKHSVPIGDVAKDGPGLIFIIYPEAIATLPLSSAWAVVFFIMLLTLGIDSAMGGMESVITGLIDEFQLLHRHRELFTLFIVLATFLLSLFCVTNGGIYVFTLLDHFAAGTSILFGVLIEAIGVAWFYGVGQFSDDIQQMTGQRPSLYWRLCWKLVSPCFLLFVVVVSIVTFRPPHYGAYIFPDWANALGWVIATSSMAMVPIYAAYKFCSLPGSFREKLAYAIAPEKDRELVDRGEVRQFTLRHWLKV

In the case of `O=C(O)c1cc(C(=O)O)c(C(=O)N(Cc2cccc(Oc3ccccc3)c2)[C@H]2CCCc3ccccc32)cc1C(=O)O` [A-317491], the “block of the response of ATP” value (P2X receptors [1]) is reported as “up to 40%”, the “effect on ATP signals” value (P2X receptors [1]) is reported as “only a weak partial effect” and the “effect on the response to α,β-meATP” value (P2X receptors [1]) is reported as “potently and completely blocked”. The “pIC50 on the response triggered by α,β-meATP” value (shortened to “pIC50 … by α,β-meATP”) (P2X receptors [1]) was 6.31 ± 0.05.
For `CC(N)Cc1ccccc1` (centres unmarked) [AMP, amphetamine], the main oscillation frequency (LUHMES neurons [2]; 1 µM DA (n = 6), 0.3 µM AMP (n = 10), FFT analysis) was 0.234 ± 0.007 Hz and 0.2–0.23 Hz, the “recordings with oscillations of the Ca2+-imaging signal” value (LUHMES neurons [2]; 1 µM DA (n = 125), 0.3 µM AMP (n = 50)) was 94.0% and the “effect on uptake of [3H]DA” value [3] was “inhibited; also recorded: significantly reduced”.
For `Nc1ncnc2c1ncn2[C@@H]1O[C@H](COP(=O)(O)OP(=O)(O)OP(=O)(O)O)[C@@H](O)[C@H]1O` [ATP, Adenosine 5'-triphosphate], the “pEC50 in Ca2+-imaging” value (P2X receptors [4]) was 7.35 ± 0.08, the “half-life of the fast decrease of the fluorescence signal” value (P2X receptors [4]; at 100 µM ATP) was ~ 8 s and the “response to agonist application” value (LUHMES neurons [5]; 100 µM ATP for 5 s, current clamp) was “triggered action potential firing”.
With `Nc1ncnc2c1ncn2[C@@H]1O[C@H](COP(=O)(O)OP(=O)(O)OP(=O)(O)O)[C@@H](OC(=O)c2ccc(C(=O)c3ccccc3)cc2)[C@H]1O` [BzATP] the “pEC50 in Ca2+-imaging” value (P2X receptors [4]) was 7.76 ± 0.11.
In the case of `NCCc1ccc(O)c(O)c1` [DA, dopamine], the main oscillation frequency (LUHMES neurons [2]) is reported as 0.201 ± 0.002 Hz and 0.2–0.23 Hz and the “recordings with oscillations of the Ca2+-imaging signal” value (LUHMES neurons [2]) is reported as 61.6% and 62%.
In the case of `O=C(Nc1ccc(S(=O)(=O)Nc2nccs2)cc1)C(c1ccccc1)c1ccccc1` [ICA-121431], the IC50 (NaV1.2) is listed as 240 nM, the IC50 (NaV1.7) is listed as 10000 nM and the IC50 (NaV1.6) is listed as 13000 nM. For the same molecule, the IC50 (NaV1.3) was 13 nM, the IC50 (NaV1.1) was 23 nM and the “pIC50, NaV current with 50% of channels inactivated” value (NaV channels [6]; prepulse to −55 mV) was 6.33 ± 0.10 and 6.3.
For `CCN(CC)CC(=O)Nc1c(C)cccc1C` [Lidocaine, lidocaine], the “pIC50 in rat hippocampal neurons” value (rat hippocampal neurons) is given as ~ 3.4, the “pIC50, NaV current, 1st pulse” value (NaV channels [6]) is given as 3.03 ± 0.07 and the “pIC50, NaV current, 10th pulse” value (NaV channels [6]) is given as 3.57 ± 0.06.
With `CC(C)[C@H]1c2ccc(F)cc2CC[C@@]1(CCN(C)CCCc1nc2ccccc2[nH]1)OC(=O)C1CC1.Cl.Cl` [NNC 55–0396, (1S,2S)-2-(2-(N-[(3-benzimidazol-2-yl)propyl]-N-methylamino)ethyl)-6-fluoro-1,2,3,4-tetrahydro-1-isopropyl-2-naphtyl cyclopropanecarboxylate dihydrochloride] the “signal amplitude compared to control, response to AMP” value (LUHMES neurons [2]) was 2.1 ± 0.02%, the “signal amplitude compared to control, response to DA” value (LUHMES neurons [2]) was 3.0 ± 0.02% and the “inhibition of amplitude, DA/AMP induced oscillations” value (LUHMES neurons [2]; [8]) was over 95%. The “signal amplitude compared to control, DA/AMP induced oscillations” value (LUHMES neurons [2]; [8]) was 2–3%.
For `Nc1ncnc2c1ncn2[C@@H]1O[C@H](COP(=O)(O)OP(=O)(O)OP(=O)(O)O)[C@H]2OC3(O[C@H]21)C([N+](=O)[O-])=CC(=[N+]([O-])[O-])C=C3[N+](=O)[O-]` (some centres unmarked) [TNP-ATP, 2′,3′-O-(2,4,6-trinitrophenyl) adenosine 5′-triphosphate], the “pIC50 … by α,β-meATP” value (P2X receptors [1]; 0.1 µM α,β-meATP (~EC75)) was 7.5 and the “pIC50 on the response triggered by ATP” value (P2X receptors [1]) was 6.1 and 6.05 ± 0.06.
In the case of `NC1=N[C@H](O)[C@H]2[C@H]3O[C@]4(O)O[C@@H]([C@@H](O)[C@@]2(N1)[C@@H]4O)[C@]3(O)CO` [TTX, tetrodotoxin], the “signal amplitude compared to control, response to AMP” value (LUHMES neurons [2]) is reported as 21% and 20.5 ± 0.02%, the “signal amplitude compared to control, response to DA” value (LUHMES neurons [2]) is reported as 69% and 68.6 ± 0.06% and the “pIC50 on the response triggered by VTD” value (NaV channels [7]) is reported as 7.9 and 7.93 ± 0.06. The “pIC50, NaV current (pulse not specified)” value (NaV channels [6]) was ~ 7.2, the “pIC50, NaV current, 1st pulse” value (NaV channels [6]) was 7.23 ± 0.05 and the “pIC50, NaV current, 10th pulse” value (NaV channels [6]) was 7.26 ± 0.05. For the same molecule, the “effect on rapid transient inward currents” value (LUHMES neurons [5]) was “blocked”.
For `COc1ccc(C(=O)O[C@H]2CC[C@@]3(C)[C@@H]4CC[C@H]5[C@]6(O)C[C@H](O)[C@@]7(O)[C@@H](CN8C[C@@H](C)CC[C@H]8[C@@]7(C)O)[C@]6(O)C[C@@]53O[C@]24O)cc1OC` [VTD, veratridine], the “pEC50, rise of [Ca2+]i” value (NaV channels [7]; LUHMES neurons) was 5.4 and 5.38 ± 0.03 and the “effect on action potential duration” value (LUHMES neurons [5]; 1 µM VTD, current clamp, n = 4) was “reversibly increased the action potential duration”.
In the case of `COC(=O)[C@H]1[C@@H](OC(=O)c2ccccc2)C[C@@H]2CC[C@H]1N2C` [cocaine], the “effect on uptake of [3H]DA” value [3] is reported as “inhibited; also recorded: significantly reduced”.
In the case of `COC(=O)C1=C(C)NC(C)=C(C(=O)OC)C1c1ccccc1[N+](=O)[O-]` [nifedipine], the “signal amplitude compared to control, response to AMP” value (LUHMES neurons [2]) is reported as 51% and 51.4 ± 0.03% and the “signal amplitude compared to control, response to DA” value (LUHMES neurons [2]) is reported as 70% and 70.2 ± 0.05%.
In the case of `CN1Cc2c(N)cccc2C(c2ccccc2)C1` (centres unmarked) [nomifensine], the “effect on oscillations induced by AMP and DA” value (LUHMES neurons [2]) is reported as “blocked”.
In the case of `C[C@@H]1C[C@@H]2O[C@@H]3[C@@H](C)[C@H](O)[C@@H]4O[C@@]5(CCCO5)[C@@H](C)[C@H](C)[C@H]4O[C@H]3C[C@H]2O[C@H]2C[C@H]3O[C@H]4C/C=C\C[C@H]5O[C@H]6C=C[C@H]7O[C@H]8[C@H](O)[C@H]9O[C@@H](/C=C/[C@H](O)CO)C=CC[C@@H]9O[C@@H]8C[C@@H]7O[C@@H]6C=C[C@@H]5O[C@@H]4C[C@@H](O)[C@]3(C)O[C@@H]2C1` [pCTX-2, pacific ciguatoxin-2], the “acute toxicity (mice)” value (mice) is listed as 2.3 µg/kg, the “amplitude of the evoked response” value (NaV channels [7]) is listed as 1779 ± 50 AU and the “effect compared to control” value (NaV channels [7]) is listed as “no effect”. For the same molecule, the “effect on [Ca2+]i / Ca2+-imaging signal” value (NaV channels [7]) was “induced an increase of the baseline and oscillations; also recorded: increased [Ca^2+]i” and the “effect on the amplitude induced by 3 µM VTD” value (NaV channels [7]) was “significantly reduced”.
For `Cc1ccc(C(=O)Nc2ccc(S(=O)(=O)O)c3cc(S(=O)(=O)O)cc(S(=O)(=O)O)c23)cc1NC(=O)c1cccc(NC(=O)Nc2cccc(C(=O)Nc3cc(C(=O)Nc4ccc(S(=O)(=O)O)c5cc(S(=O)(=O)O)cc(S(=O)(=O)O)c45)ccc3C)c2)c1` [suramin], the “pIC50 … by α,β-meATP” value (P2X receptors [1]; 0.1 µM α,β-meATP (~EC75)) is listed as 4.51 ± 0.03 and 4.5, the “pIC50 on the response triggered by ATP” value (P2X receptors [1]) is listed as 4.09 ± 0.03 and 4.1 and the “pIC50 for human P2X3 receptors” value (human P2X3 receptors) is listed as “approximately 4.8”.
For `Nc1ncnc2c1ncn2[C@@H]1O[C@H](COP(=O)(O)CP(=O)(O)OP(=O)(O)O)[C@@H](O)[C@H]1O` [α,β-meATP], the “pEC50 in Ca2+-imaging” value (P2X receptors [4]) was 7.52 ± 0.03 and 7.5 and the “pEC50, amplitude normalized to K+ amplitude” value (P2X receptors [4]; normalized to 30 mM K+ application, 5 differentiations) was 7.58 ± 0.04.
With microcystin-LF the “effect alone in Ca2+-imaging” value (NaV channels [7]) was “no significate effect; also recorded: did not show any effects” and the “effect on the response to 3 µM VTD” value (NaV channels [7]) was “no significate effect; also recorded: did not show any effects”.

Source: article PMC7811517, “Human neuronal signaling and communication assays to assess functional neurotoxicity” (Archives of Toxicology, 2020)
